This is an account of results in US20100029784A1, “NAPHTHOQUINONE COMPOSITIONS WITH ANTI-AGING, ANTI-INFLAMMATORY AND SKIN EVEN-TONING PROPERTIES” (priority 2008, published 2010).

The test system of the test is MelanoDerm in vitro skin model (MEL-300B melanoderms). Description: In vitro skin model test (MelanoDerm, MatTek), skin-lightening effect by digital image quantification. It is filed as cell-based. The settings on record: for lightening / pixel density (untreated set at 1.00): 14 days, MEL-300B. Here is the method:
The skin-lightening effect was validated on the in vitro skin model, the MelanoDerm™ carried out by MatTek using MEL-300B melanoderms. This model is very similar in structure and function to the natural skin and has the cell types relevant in the epidermis including the melanocytes, which are responsible for the synthesis of the main pigment melanin. Further information can be found, for example, in http://www.mattek.com/pages/in_vitro_basics. The study was carried out over a period of 14 days at two concentrations of 2,3-dimethylnaphthalene-1,4-dione, 10 μM and 60 μM. 1% Kojic acid was the positive standard and untreated as negative control.
Digital image quantification was achieved by subtracting a standard background value from the pixel content of regions of identical size. The pixel content of untreated cells was set at 1.00. Treatment with topical 1% kojic acid as a positive control gave pixel density of 0.96, or 4% lightening. Treatment with 2,3-dimethylnaphthalene-1,4-dione gave pixel density of 0.66 or 34% lightening at a concentration of 10 μM and 0.38 or 62% lightening at a concentration of 60 μM.

The mark [1] stands for this setting: topical 1% kojic acid, positive control.

Regarding `CC1=C(C)C(=O)c2ccccc2C1=O` [2,3-dimethylnaphthalene-1,4-dione], the “effectiveness relative to the kojic acid positive standard” value is on record as “about ten times as effective” (concentration of 10 μM vs 1% kojic acid) and “about fifteen times as effective” (concentration of 60 μM vs 1% kojic acid). The molecule further gave a lightening (concentration of 10 μM) of 34% and a lightening (concentration of 60 μM) of 62%. Also, the “pixel density (untreated set at 1.00)” value reads like this: (concentration of 10 μM) 0.66; (concentration of 60 μM) 0.38.

As for `O=c1cc(CO)occ1O` [kojic acid, Kojic acid, reference compound], under setting [1], the lightening was 4% and the “pixel density (untreated set at 1.00)” value is 0.96.
